{
  "source": "patent US9770436B2",
  "about": "“Polymorphs of azabicyclohexane” (EUTHYMICS BIOSCIENCE, INC., priority 2004, dated 2017)",
  "key": {"[1]": {"conditions": "(+) isomeric form; cited from earlier work"}, "[2]": {"assay": "Informal storage stability of the Example 1 hydrochloride salt (50% by weight mixture of polymorph forms A and B) in desiccators; polymorph content by XRPD and Raman", "format": "physicochemical", "conditions": "started as 50% (by weight) A / 50% B, XRPD", "description": "The X-ray powder diffraction pattern (XRPD) analyses of polymorph forms A, B and C were performed with a Shimadzu XRD-6000 X-ray powder diffractometer using Cu Ka radiation. In this procedure the compound as a hydrochloride salt was loaded onto the machine as a crystalline powder. The instrument was equipped with a long fine focus X-ray tube. The tube voltage and amperage were set to 40 kV and 40 mA, respectively. The divergence and scattering slits were set at 1° and the receiving slit was set at 0.15 mm. Diffracted radiation was detected by a Nal scintillation detector. A theta-two theta continuous scan at 3°/min (0.4 sec/0.02° step) from 2.5 to 40° 2θ was used. A silicon standard was analyzed to check the instrument alignment. Data were collected and analyzed using XRD-6000 v. 4.1.\nBriefly, Raman spectra were obtained using a FT-Raman 960 (or 860) spectrometer (Thermo Nicolet) interfaced to an 860 FT-IR. This spectrometer uses an excitation wavelength of 1064 nm. Approximately 0.912 W of Nd:YV04 laser power was used to irradiate the samples. The Raman spectra were measured with an indium gallium arsenide (InGaAs) detector. The samples were pressed into pellets for analysis. A total of 128 sample scans were collected from 3600 or 3700-98 cm^−1 at a spectral resolution of about (±) 4 cm^−1, using Happ-Genzel apodization. Wavelength calibration was performed using sulfur and cyclohexane. The Raman spectra peak positions given below in wavenumbers (cm^−1) for the purified polymorph forms A, B and C of the hydrochloride salt of (+)-1-(3,4-dichlorophenyl)-3-azabicyclo[3.1.0]hexane are subject to an error of about (±) 4 cm^−1.\nDuplicate samples of the hydrochloride salt of (+)-1-(3,4dichlorophenyl)-3-azabicyclo[3.1.0] hexane produced in Example 1 and containing a 50% (by weight) mixture of polymorph form A and polymorph form B were placed on informal stability to test storage in desiccators placed at ambient temperature and at 50° C. in a programmable heating bloc."}, "[3]": {"assay": "Thermodynamic stability of the crystalline polymorph forms", "format": "physicochemical", "conditions": "pure crystalline structure, acid addition salt"}, "[4]": {"conditions": "50° C. programmable heating block, after 17 days of storage"}, "[5]": {"conditions": "desiccator, ambient temperature, after 1 week, confirmed by Raman"}},
  "data": [
    {"smiles": "Clc1ccc(C23CNCC2C3)cc1Cl", "note": "(single isomer, unassigned; (+)) [compound of formula I, (+)-1-(3,4-dichlorophenyl)-3-azabicyclo[3.1.0]hexane]", "values": [
      {"measurement": "anti-depressive activity", "setting": "[1]", "result": "potent anti-depressive activity"}
    ]},
    {"smiles": "Cl.Clc1ccc(C23CNCC2C3)cc1Cl", "note": "(stereo not drawn) [Example 1, hydrochloride salt of (+)-1-(3,4dichlorophenyl)-3-azabicyclo[3.1.0] hexane]", "values": [
      {"measurement": "content of polymorph form A after storage", "setting": "[2]; [4]", "result": "about 50 % (by weight)"},
      {"measurement": "content of polymorph form C after storage", "setting": "[2]; [4]", "result": "50 % (by weight)"},
      {"measurement": "content of polymorph form A after storage", "setting": "[2]; [5]", "result": "40 % (by weight)"},
      {"measurement": "content of polymorph form B after storage", "setting": "[2]; [5]", "result": "60 % (by weight)"}
    ]},
    {"smiles": "Cl.Clc1ccc(C23CNCC2C3)cc1Cl", "note": "(stereo not drawn) [polymorph form A, hydrochloride salt of (+)-1-(3,4-dichlorophenyl)-3-azabicyclo[3.1.0]hexane]", "values": [
      {"measurement": "thermodynamic stability of the polymorph form", "setting": "[3]", "result": "thermodynamically stable"}
    ]}
  ]
}
